The test relates to blood pressure of anesthetized Sprague-Dawley IGS male rats. As to the kind of experiment: Hypotensive activity in anesthetized rats, invasive blood pressure measurement after intravenous administration. It is filed as in vivo, rat. Conditions: for Hypotensive activity (dose/rat) 10 nmol / Hypotensive activity (dose/rat) 30 nmol / Hypotensive activity (dose/rat) 100 nmol: anesthetized rats, intravenous; for Hypotensive activity (dose/rat) 10 nmol: 10 nmol/rat; for Hypotensive activity (dose/rat) 30 nmol: 30 nmol/rat; for Hypotensive activity (dose/rat) 100 nmol: 100 nmol/rat; for dose dependence of hypotensive activity: anesthetized rats, 10, 30, 100 nmol/rat. The protocol: 50 mg/kg pentobarbital sodium was intraperitoneally administered to 8- to 10-week-old Sprague-Dawley IGS male rats (Charles River Laboratories Japan, Inc.) for anesthesia. Thereafter, a tracheal cannula (PE 250), a femoral vein cannula (PE50), and a femoral artery cannula (PESO) were inserted into each rat. The femoral artery cannula was connected with a pressure transducer (PE23XL; manufactured by Nihon Kohden Corporation), and an apparatus formed by incorporating a blood pressure measurement unit (AP-641G; manufactured by Nihon Kohden Corporation) and an instantaneous heart rate measurement unit (AT-601G; manufactured by Nihon Kohden Corporation) into a multi-purpose preamplifier (RP-6004; manufactured by Nihon Kohden Corporation) was used to record the blood pressure and heart rate of each rat. The blood pressure was calibrated using a mercury manometer included in a stand-type electromanometer (MP-25S; manufactured by Nihon Kohden Corporation). The recording paper was adjusted, such that 10 mm or 20 mm on the recording paper corresponded to 100 mmHg.
Each peptide was dissolved in a concentration of 1 mM or 10 mM in a 0.1% acetic acid solution to prepare a peptide solution. Thereafter, depending on dose, it was diluted with a normal saline containing 0.1% bovine serum albumin (Fr.V). In the case of the dose of 10 nmol/rat, a 1 mM peptide solution was 10 times diluted, and 100 μl of the diluted solution was administered. In the case of the dose of 30 nmol/rat, a 1 mM peptide solution was 10 times diluted, and 300 μL, of the diluted solution was administered. In the case of the dose of 100 nmol/rat, a 10 mM peptide solution was 10 times diluted, and 100 μL of the diluted solution was administered. Each peptide was intravenously administered via the femoral vein cannula, and the systolic blood pressure, diastolic blood pressure, and heart rate were then measured.
Various HC021 derivative peptides were synthesized in accordance with Example 1, and such peptide was then administered to each rat at a dose of 10 nmol/rat, 30 nmol/rat, or 100 mol/rat by the method described in Example 2. Thereafter, the hypotensive activity of each derivative peptide was measured. […] The strength of such activity was determined using a median of activity in repeated experiments. In addition, in order to make a comparison among the activities of various derivative peptides, the strength of hypotensive activity was defined as follows.
Strength of Hypotensive Activity
Extremely strong activity (+++): A decrease in systolic blood pressure is 30 mmHg or more, and the time required for recovery is 5 minutes or more.
Strong activity (++): A decrease in systolic blood pressure is 20 mmHg or more and less than 30 mmHg, or the time required for recovery is less than 5 minutes.
Activity observed (+): A decrease in systolic blood pressure is less than 20 mmHg.
Activity not observed (−)
Various HC021 peptide sequence-substituted products were synthesized in accordance with Example 1, and their hypotensive activity was then measured according to the method of Example 3.

Where no end group is shown, it is not given here. [ ]: non-standard residue; d: D form. Cha = N[C@@H](CC1CCCCC1)C(=O)O

Regarding “GATVRNEDKWKPLNNPRNRDLFFRRLQAYFK-amide [Compound 7]”, for the setting “Table 2”, the “Hypotensive activity (dose/rat) 10 nmol” value is “−”; the “Hypotensive activity (dose/rat) 30 nmol” value is “++ (Strong activity (++): A decrease in systolic blood pressure is 20 mmHg or more and less than 30 mmHg, or the time required for recovery is less than 5 minutes.)”.
On to “LFERRLQAYFKNGAEDESAEAFPLEF-amide (LFERRLQAYFKNGAEDESAEAFPLEF-NH2) [Compound 48]”, for which the “Hypotensive activity (dose/rat) 10 nmol” value (Table 3) is “+++ (Extremely strong activity (+++): A decrease in systolic blood pressure is 30 mmHg or more, and the time required for recovery is 5 minutes or more.)”.
On to “LFFRRLQA(Cha)FK-amide (LFFRRLQA[Cha]FK-NH2; N-terminus assumed; SMILES CC(C)C[C@H](NC(=O)[C@H](CCCNC(=N)N)NC(=O)[C@H](CCCNC(=N)N)NC(=O)[C@H](Cc1ccccc1)NC(=O)[C@H](Cc1ccccc1)NC(=O)[C@@H](N)CC(C)C)C(=O)N[C@@H](CCC(N)=O)C(=O)N[C@@H](C)C(=O)N[C@@H](CC1CCCCC1)C(=O)N[C@@H](Cc1ccccc1)C(=O)N[C@@H](CCCCN)C(N)=O) [Compound 45]”, for which, under “Table 3”, the “Hypotensive activity (dose/rat) 10 nmol” value is “+ (Activity observed (+): A decrease in systolic blood pressure is less than 20 mmHg.)”; the “Hypotensive activity (dose/rat) 30 nmol” value is “+++ (Extremely strong activity (+++): A decrease in systolic blood pressure is 30 mmHg or more, and the time required for recovery is 5 minutes or more.)”.
Turning to “LFFRRLQA-amide (LFFRRLQA-NH2) [Compound 26]”, where the note is “Table 2”, the “Hypotensive activity (dose/rat) 30 nmol” value was “−” and the “Hypotensive activity (dose/rat) 100 nmol” value was “−”.
“LFFRRLQAHFK-amide (LFFRRLQAHFK-NH2) [Compound 47]”: where the note is “Table 3”, the “Hypotensive activity (dose/rat) 10 nmol” value is “−”; the “Hypotensive activity (dose/rat) 30 nmol” value was “−”; the “Hypotensive activity (dose/rat) 100 nmol” value is “+++ (Extremely strong activity (+++): A decrease in systolic blood pressure is 30 mmHg or more, and the time required for recovery is 5 minutes or more.)”.
For the substance “LFFRRLQALFK-amide (LFFRRLQALFK-NH2) [Compound 44]”, where the note is “Table 3”, the “Hypotensive activity (dose/rat) 10 nmol” value was “−”; the “Hypotensive activity (dose/rat) 30 nmol” value was “++ (Strong activity (++): A decrease in systolic blood pressure is 20 mmHg or more and less than 30 mmHg, or the time required for recovery is less than 5 minutes.)”.
Regarding “LFFRRLQAWFK-amide (LFFRRLQAWFK-NH2) [Compound 46]”, where the note is “Table 3”, the “Hypotensive activity (dose/rat) 10 nmol” value is “−”, the “Hypotensive activity (dose/rat) 30 nmol” value was “−” and the “Hypotensive activity (dose/rat) 100 nmol” value is reported as “+ (Activity observed (+): A decrease in systolic blood pressure is less than 20 mmHg.)”.
Turning to “LFFRRLQAY-amide (LFFRRLQAY-NH2) [Compound 25]”, where the note is “Table 2”, the “Hypotensive activity (dose/rat) 30 nmol” value is given as “−” and the “Hypotensive activity (dose/rat) 100 nmol” value is given as “+ (Activity observed (+): A decrease in systolic blood pressure is less than 20 mmHg.)”.
For “LFFRRLQAYF-amide (LFFRRLQAYF-NH2) [Compound 24]”, the “Hypotensive activity (dose/rat) 30 nmol” value (Table 2) was “++ (Strong activity (++): A decrease in systolic blood pressure is 20 mmHg or more and less than 30 mmHg, or the time required for recovery is less than 5 minutes.)”.
Turning to LFFRRLQAYFK [Compound 18], for the setting “Table 2”, the “Hypotensive activity (dose/rat) 30 nmol” value is reported as “−”; the “Hypotensive activity (dose/rat) 100 nmol” value is “++ (Strong activity (++): A decrease in systolic blood pressure is 20 mmHg or more and less than 30 mmHg, or the time required for recovery is less than 5 minutes.)”.
On to “LFFRRLQAYFK-amide (LFFRRLQAYFK-NH2) [Compound 19]”, for which the “dose dependence of hypotensive activity” value is given as “enhanced their hypotensive activity in a dose-dependent manner”. Also, where the note is “Table 2”, the “Hypotensive activity (dose/rat) 10 nmol” value is “+ (Activity observed (+): A decrease in systolic blood pressure is less than 20 mmHg.)”; the “Hypotensive activity (dose/rat) 30 nmol” value was “++ (Strong activity (++): A decrease in systolic blood pressure is 20 mmHg or more and less than 30 mmHg, or the time required for recovery is less than 5 minutes.)”; the “Hypotensive activity (dose/rat) 100 nmol” value was “+++ (Extremely strong activity (+++): A decrease in systolic blood pressure is 30 mmHg or more, and the time required for recovery is 5 minutes or more.)”. In addition, for the setting “Table 3”, the “Hypotensive activity (dose/rat) 10 nmol” value was “+ (Activity observed (+): A decrease in systolic blood pressure is less than 20 mmHg.)”; the “Hypotensive activity (dose/rat) 30 nmol” value was “++ (Strong activity (++): A decrease in systolic blood pressure is 20 mmHg or more and less than 30 mmHg, or the time required for recovery is less than 5 minutes.)”; the “Hypotensive activity (dose/rat) 100 nmol” value is “+++ (Extremely strong activity (+++): A decrease in systolic blood pressure is 30 mmHg or more, and the time required for recovery is 5 minutes or more.)”.
As to “LFFRRLQAYFKASASADYEEQKNSFHNYLK- amide [Compound 49]”, the “Hypotensive activity (dose/rat) 10 nmol” value (Table 3) is “+++ (Extremely strong activity (+++): A decrease in systolic blood pressure is 30 mmHg or more, and the time required for recovery is 5 minutes or more.)”.
For LFFRRLQAYFKGRGLDLGTFPNPF [Compound 27], where the note is “Table 2”, the “Hypotensive activity (dose/rat) 10 nmol” value is “+++ (Extremely strong activity (+++): A decrease in systolic blood pressure is 30 mmHg or more, and the time required for recovery is 5 minutes or more.)”.
Still for that read-out and setting: with “LFFRRLQAYFKGRGLDLGTFPNPF-amide (LFFRRLQAYFKGRGLDLGTFPNPF-NH2) [Compound 28]” the entry was “+++ (Extremely strong activity (+++): A decrease in systolic blood pressure is 30 mmHg or more, and the time required for recovery is 5 minutes or more.)”.
The same measure, in the same setting: with “LFFRRLQAYFKGRGLDLGTFPNPFPTNENPR [Compound 29]” the entry was “+++ (Extremely strong activity (+++): A decrease in systolic blood pressure is 30 mmHg or more, and the time required for recovery is 5 minutes or more.)”.
With “LFFRRLQAYFKGRGLDLGTFPNPFPTNENPR-amide [Compound 30]”, the “Hypotensive activity (dose/rat) 10 nmol” value (Table 2) was “+++ (Extremely strong activity (+++): A decrease in systolic blood pressure is 30 mmHg or more, and the time required for recovery is 5 minutes or more.)”; the “Hypotensive activity (dose/rat) 10 nmol” value (Table 3) was “+++ (Extremely strong activity (+++): A decrease in systolic blood pressure is 30 mmHg or more, and the time required for recovery is 5 minutes or more.)”.
Regarding “LFFRSLQAYFK-amide (LFFRSLQAYFK-NH2) [Compound 43]”, where the note is “Table 3”, the “Hypotensive activity (dose/rat) 10 nmol” value is recorded as “−”; the “Hypotensive activity (dose/rat) 30 nmol” value was “++ (Strong activity (++): A decrease in systolic blood pressure is 20 mmHg or more and less than 30 mmHg, or the time required for recovery is less than 5 minutes.)”.
As to “NGATVRNEDKWKPLNNPRNRDLFFRRLQAYFK-amide [Compound 6]”, under “Table 2”, the “Hypotensive activity (dose/rat) 10 nmol” value is reported as “−” and the “Hypotensive activity (dose/rat) 30 nmol” value is given as “+ (Activity observed (+): A decrease in systolic blood pressure is less than 20 mmHg.)”.
For “NRDLFFRRLQAYAK-amide (NRDLFFRRLQAYAK-NH2) [Compound 42]”, under “Table 3”, the “Hypotensive activity (dose/rat) 10 nmol” value was “−”; the “Hypotensive activity (dose/rat) 30 nmol” value is “−”; the “Hypotensive activity (dose/rat) 100 nmol” value is “++ (Strong activity (++): A decrease in systolic blood pressure is 20 mmHg or more and less than 30 mmHg, or the time required for recovery is less than 5 minutes.)”.
“NRDLFFRRLQAYFK (not fully specified (C-terminus)) [Compound 15]”: under “Table 2”, the “Hypotensive activity (dose/rat) 10 nmol” value is on record as “−”, the “Hypotensive activity (dose/rat) 30 nmol” value is “−” and the “Hypotensive activity (dose/rat) 100 nmol” value was “+ (Activity observed (+): A decrease in systolic blood pressure is less than 20 mmHg.)”.
As to NRDLFFRRLQAYFKG [Compound 11], under “Table 2”, the “Hypotensive activity (dose/rat) 10 nmol” value was “−”, the “Hypotensive activity (dose/rat) 30 nmol” value is “−” and the “Hypotensive activity (dose/rat) 100 nmol” value is listed as “+ (Activity observed (+): A decrease in systolic blood pressure is less than 20 mmHg.)”.
As to “NRDLFFRRLQAYFKG-amide (NRDLFFRRLQAYFKG-NH2) [Compound 12]”, the “dose dependence of hypotensive activity” value is “enhanced their hypotensive activity in a dose-dependent manner”. For the same substance, for the setting “Table 2”, the “Hypotensive activity (dose/rat) 10 nmol” value is reported as “−”; the “Hypotensive activity (dose/rat) 30 nmol” value is “++ (Strong activity (++): A decrease in systolic blood pressure is 20 mmHg or more and less than 30 mmHg, or the time required for recovery is less than 5 minutes.)”; the “Hypotensive activity (dose/rat) 100 nmol” value was “+++ (Extremely strong activity (+++): A decrease in systolic blood pressure is 30 mmHg or more, and the time required for recovery is 5 minutes or more.)”.

Values taken from patent US20110039783A1, “PEPTIDE HAVING HYPOTENSIVE ACTIVITY” (DAIICHI SANKYO COMPANY LIMITED, priority 2007, published 2011).
